Data from PMC6684654 (Nature Communications, 2019).

Tests used:
[1] = tested on: NDM-1 E. coli XJ141015; experiment: MIC, broth microdilution; type: cell-based; conditions: MHB, 5 × 10^5 CFU/mL, 16 h, 37 °C
From the text: (§1) MIC values were identified through microdilution in sterilized 96-well polypropylene microtiter plates according to the broth microdilution guideline of the Clinical and Laboratory Standards Institute[30]. The test medium was Mueller–Hinton broth (MHB), and the strain concentrations were adjusted to 5 × 10^5 CFU/mL.

[2] = tested on: NDM-1 E. coli XJ141026; experiment: MIC, broth microdilution; type: cell-based; conditions: MHB, 5 × 10^5 CFU/mL, 16 h, 37 °C
From the text: as §1

[3] = tested on: NDM-1 E. coli XJ141047; experiment: MIC, broth microdilution; type: cell-based; conditions: MHB, 5 × 10^5 CFU/mL, 16 h, 37 °C
From the text: as §1

[4] = tested on: NDM-1 K. pneumoniae XJ155019; experiment: MIC, broth microdilution; type: cell-based; conditions: MHB, 5 × 10^5 CFU/mL, 16 h, 37 °C
From the text: as §1

[5] = tested on: NDM-1 K. pneumoniae XJ155020; experiment: MIC, broth microdilution; type: cell-based; conditions: MHB, 5 × 10^5 CFU/mL, 16 h, 37 °C
From the text: as §1

[6] = tested on: NDM-1 in E. coli XJ141026 culture supernatant; experiment: NDM-1 release to culture supernatant (ELISA); type: cell-based; conditions: 0.8, 1.6, 3.2 μM; 6 or 12 h
Experimental: (§2) NDM-1 level in the filtered supernatant was measured using a specific ELISA kit (Shanghai Enzyme-linked Biotechnology Co., Ltd., China) and western blot analysis. Imipenem hydrolysis in the filtered supernatant at 6 h was monitored using a Biotek powerwave HT microplate spectrophotometer at 30 °C by determining the changes in absorbance at 300 nm, with a final substrate concentration of 100 μM.

[7] = tested on: NDM-1 in E. coli XJ141026; experiment: NDM-1 levels in supernatants and cell precipitates (western blot); type: cell-based; conditions: 0.8, 1.6, 3.2 μM; 6 h
Experimental: as §2
Soluble total protein concentration was determined and normalized with the Pierce BCA Protein Assay Kit (Thermo Fisher Scientific, Waltham, MA, USA). NDM-1 levels in the cells were measured by SDS-PAGE followed by western blot analysis. The primary antibody against NDM-1 was obtained from Detai Bio-Tech Co., Ltd. by immunizing New Zealand white rabbits with purified NDM-1 protein and further detected by horseradish peroxidase-conjugated anti-rabbit secondary antibody (Santa Cruz Biotechnology Inc., USA). Anti-GroEL antibody (Abcam, ab82592) was used to verify protein loading transferred to the membranes. To clearly normalize the levels of NDM-1, we investigated the two proteins on the same membrane. […] Protein band intensities were quantified from polyvinylidene difluoride membranes with ImageJ software.

[8] = tested on: NDM-1 in E. coli XJ141026 supernatant; experiment: Imipenem hydrolysis by culture supernatant; type: biochemical
Experimental: as §2

[9] = tested on: NDM-1 in E. coli XJ141026 cell precipitates; experiment: Imipenem hydrolysis by cell precipitates; type: biochemical; conditions: 100 μM imipenem (50 μL of 200 μM), 30 °C; treated 6 h
Experimental: The cell pellet was washed and resuspended in 20 mM Tris-HCl (pH = 7.4) to evaluate imipenem hydrolysis in bacterial cell precipitates. The concentrations were equalized by adjusting the absorbance values to OD600 = 0.3 in the same buffer. After 50 μL of the diluted bacterial cell suspension was transferred to a 96-well plate, 50 μL of 200 μM imipenem was added to measure the hydrolytic activity of NDM-1 and 50 μL of 20 mM Tris-HCl (pH = 7.4) was added as blank. The assays were monitored at 300 nm by using a Biotek powerwave HT microplate spectrophotometer at 30 °C. Data were corrected by subtracting the absorbance values obtained from the blanks.

[10] = target: apo-NDM-1 (Klebsiella pneumoniae, UniProt C7C422); type: binding; conditions: 50 mM HEPES pH 7.4, 0.05% Tween-20, RED-tris-NTA label, triplicate
Experimental: Briefly, apo-NDM-1 was derived from the purified NDM-1 obtained above by the two rounds of dialysis against 100 volumes of 10 mM HEPES, 200 mM NaCl, and 20 mM EDTA at pH = 7.4 over a 12 h period under stirring. EDTA was removed from the resulting apoenzyme solution by three dialysis steps against 200 volumes of 10 mM HEPES, 1 M NaCl, pH = 7.4, Chelex 100 and finally three dialysis steps against 200 volumes of 50 mM HEPES, 200 mM NaCl, pH = 7.4, and Chelex 100. All buffer solutions used to prepare the apoenzymes were treated by stirring with Chelex 100 (Bio-Rad). Zinc content in the apoprotein samples was checked using ICP-MS, and apo-NDM-1 contains less than 0.2 molar equivalents of zinc ion.
Apo-NDM-1 carrying a polyhistidine-tag (His-tag) was labeled with the RED-tris-NTA second-generation dye for 30 min at room temperature in the dark according to the manufacturer’s instructions (Monolith His-tag Labeling Kit RED-tris-NTA 2nd generation, Nanotemper Technologies GmbH). […] Then, 100 nM labeled NDM-1 protein was added to the serial dilution of the compound in a 1:1 volume ratio. After incubation for 30 min at room temperature, the samples were examined with Monolith NT.115 in Premium Capillaries (MO-K025) at medium MST power and 5% LED/excitation power. Kd values were determined using the Monolith Affinity Analysis Kd fit from triplicate experiments.

[11] = target: NDM-1 (Klebsiella pneumoniae, UniProt C7C422); conditions: cited from earlier work
From the text: NDM-1 inhibitors, which antagonize multiple subtypes of metallo-β-lactamases and protect β-lactam antibiotics from being hydrolyzed, have been widely studied for synergistic application with β-lactam antibiotics to restore their bactericidal effects[15],[25],[26]. The most common mechanism of metallo-β-lactamase inhibitors is metal ion binding.

Chain of NDM-1 (C7C422 20-270, looked up, natural form): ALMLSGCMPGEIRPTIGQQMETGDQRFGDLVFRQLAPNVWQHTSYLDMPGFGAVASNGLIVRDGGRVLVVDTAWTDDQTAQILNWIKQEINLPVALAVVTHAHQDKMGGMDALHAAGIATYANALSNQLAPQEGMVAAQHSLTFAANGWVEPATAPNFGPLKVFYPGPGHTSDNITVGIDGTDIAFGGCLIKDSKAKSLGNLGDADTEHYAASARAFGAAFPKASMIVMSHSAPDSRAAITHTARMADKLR
Chain of apo-NDM-1 (C7C422 20-270, looked up, natural form): as above

Compound	MIC [1]	MIC [2]	MIC [3]	MIC [4]	MIC [5]	NDM-1 release into solution [6]	NDM-1 level in cell precipitates [7]	hydrolysis of imipenem by supernatant ([8]; 100 μM imipenem, 30 °C, treated 6 h)	effect on NDM-1 activity ([8]; Discussion)	hydrolysis rate of precipitates [9]	Kd [10]	NDM-1 inhibition in words [11]
Colistin	1.7 µM	0.85 µM	1.7 µM	6.8 µM	6.8 µM	causing the release of NDM-1 into the solution in a time- and concentration-dependent manner	decreased	strong hydrolytic activity to imipenem	almost no effect on NDM-1 activity	consistently decreased with increasing thanatin or colistin concentration	61.7 ± 4.92 µM	–
N[C@H](CN[C@H](CN[C@@H](CC(=O)O)C(=O)O)C(=O)O)C(=O)O [aspergillomarasmine A]	–	–	–	–	–	–	–	–	–	–	–	inhibits the NDM-1 protease activity by chelating zinc ions from the active site
